Tests used:
50-58 kDa protein = test: LH-20 binding assay with purified 50-58 kDa binding protein from JURKAT cytosol; set-up: species or system human; conditions: for Kd: 50-58 kDa protein from peripheral blood mononuclear leukocytes and JURKAT cytosol
Experimental: E. The reaction mixture, typically a 100 μl aliquot run in duplicate, is poured onto a column of convenient dimension, such as 0.8×7.0 cm of a molecular sieve matrix such as LH-20 Sephadex (Pharmacia Fine Chemicals, Piscataway, N.J.).
The S-100 fraction was further filtered (0.45 μm pore size membrane, Gelman Sciences), the filtrate (2.9 mg protein) passed through a 600×7.5 nun Bio-Sil-125 HPLC exclusion column at a flow rate of 1.0 ml/minute in 10 mM phosphate buffer, pH 6.8; protein elution was monitored at 280 nm. Fractions (1 ml) were collected and analyzed for binding of ^3 H-dihydro FK-506 using the previously described LH-20 assay, Donnelly et al., 1991, above, which is herein incorporated by reference. Specific binding was determined by assaying each fraction without (total binding) and with ([…]) an excess of unlabeled FK-506.
The 58 kDa protein was purified from 1.4×10^10 human T-cells (JURKAT). The S-100 fraction (10 ml) was centrifuged at 2500×g for 1 hour at 4° C. in a 30 kDa Centriprep™ concentrator (Amicon Corp., Danvers, Ma.). The concentrate (1 ml) was diluted with 15 ml of 10 mM phosphate buffer, pH 6.8, and concentrated down to 5 ml. This step removed proteins of less than 30 kDa, i.e., cyclophilin and FKBP, from the S-100 fraction.
[…] FK-506 and CsA drugs was refocused under the same conditions, using only the ampholytes contained in the 2.7 ml fraction (diluted to 55 ml with deionized water). Focusing was complete when a constant voltage of 2200 was reached.
The 20 fractions were assayed for drug binding as above. […] This fraction (3.02 mg in 2.7 ml) was chromatographed in a Bio-Sil-125 HPLC column at a flow rate of 1.0 ml/minute in 10 mM phosphate buffer, pH 6.8. Fractions representing proteins of 50-60 kDa were screened for binding to both FK-506 and CsA.
Binding fractions were probed and chromatographed on a Beckman TSK CM-25W Spherogel column (26×4.6 mm) at a flow rate of 0.5 ml/minute in 10 mM phosphate buffer, pH 6.8. Fractions containing binding activity were probed and used for binding assays.
The binding assay was the LH-20 assay of Example 1.
The LH binding assay was used for generating the competition curve of FIG. 4.

FKBP [1] = conditions: FKBP isolated from yeast, calf thymus and human T cells (JURKAT); cited from earlier work
immune responses = conditions: fold greater than cyclosporine A; cited from earlier work
[2] = test system: 17 kDa (presumably cyclophilin) and 50 kDa cyclosporine A binding proteins; test: Binding of 3H-cyclosporine A to HPLC fractions of JURKAT S-100 cytosol (LH-20 assay); set-up: species or system human; conditions: rapamycin at 70 nM; either protein (17 kDa, 50 kDa)
Text: The experimental conditions of Example 1A were repeated, except that ^3 H-cyclosporine A and unlabeled cyclosporine A were substituted for FK-506.

FKBP [3] = molecular target: FKBP (Homo sapiens, UniProt P62942); conditions: cited from earlier work
Candida albicans = conditions: especially Candida albicans; cited from earlier work
[4] = test system: experimental immunopathies; conditions: rats; cited from earlier work

Sequence of FKBP (Homo sapiens, UniProt P62942) (P62942 whole entry): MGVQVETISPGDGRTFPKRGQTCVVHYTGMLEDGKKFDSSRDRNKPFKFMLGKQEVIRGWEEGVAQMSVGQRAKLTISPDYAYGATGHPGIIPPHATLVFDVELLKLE

Row | Compound | inhibition of CsA binding (50-58 kDa protein; 50-58 kDa protein) | Kd (50-58 kDa protein) [nM] | Kd (FKBP [1]) [nM] | potency of inhibiting immune responses relative to cyclosporine A (immune responses) | effect on binding of 3H-CsA (50-58 kDa protein; RAP at 300 nM, purified 58 kDa protein) | IC50 (50-58 kDa protein; inhibition of specific binding of 3H-dihydro FK-506 to purified 58 kDa protein, read-out: B50 value) [nM] | inhibition of specific binding of 3H-dihydro FK-506 (50-58 kDa protein; purified 58 kDa protein, RAP 0.005-500 nM) | effect on binding of cyclosporine A [2] | inhibition of isomerase activity of FKBP (FKBP [3]) | activity against Candida species (Candida albicans) | development of experimental immunopathies and formation of IgE-like antibody [4]
1 | C=CC[C@@H]1/C=C(\C)C[C@H](C)C[C@H](OC)[C@H]2O[C@@](O)(C(=O)C(=O)N3CCCC[C@H]3C(=O)O[C@H](/C(C)=C/[C@@H]3CC[C@@H](O)[C@H](OC)C3)[C@H](C)[C@@H](O)CC1=O)[C@H](C)C[C@@H]2OC [FK-506] | inhibited by FK-506 in a dose-dependent manner | 2 | 0.4 | 100-500 fold | – | – | – | – | – | – | –
2 | CO[C@H]1C[C@@H]2CC[C@@H](C)[C@@](O)(O2)C(=O)C(=O)N2CCCC[C@H]2C(=O)O[C@H]([C@H](C)C[C@@H]2CC[C@@H](O)[C@H](OC)C2)CC(=O)[C@H](C)/C=C(\C)[C@@H](O)[C@@H](OC)C(=O)[C@H](C)C[C@H](C)/C=C/C=C/C=C/1C [RAP, Rapamycin] | – | 0.1 | – | – | unaffected | 0.1 | inhibited in a dose-dependent manner | did not affect | potent inhibitor | highly active | totally prevented

Source: US5322772A (Children's Research Institute, priority 1991, dated 1994)
